Experiments:
Assay type in all cases: in vivo
Avena fatua = experiment: Test Example 5: herbicidal effect by foliage application, plastic box (symbol I); settings: 320 g/ha, 3 weeks after application
In short: (§1)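 Sowing in sterilized diluvial soil, 14 days' greenhouse growth at 25° C. to 30° C., then uniform small-sprayer foliar application of aqueous emulsion dilution; plants scored three weeks afterwards.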

Stellaria media = experiment: Test Example 5: herbicidal effect by foliage application, plastic box (symbol P); settings: 320 g/ha, 3 weeks after application
In short: as §1

Setaria viridis = experiment: Test Example 5: herbicidal effect by foliage application, plastic box (symbol G); settings: 320 g/ha, 3 weeks after application
In short: as §1

Apera spica-venti = experiment: Test Example 5: herbicidal effect by foliage application, plastic box (symbol L); settings: 320 g/ha, 3 weeks after application
In short: as §1

Lolium multiflorum Lam. = experiment: Test Example 5: herbicidal effect by foliage application, plastic box (symbol K); settings: 320 g/ha, 3 weeks after application
In short: as §1

Scirpus juncoides [1] = experiment: Test Example 2: herbicidal activity, application during weed generation in submerged conditions (symbol B); settings: Table 23; application herbicide amount 320 g/ha; grade 0-5 by criteria of Test Example 1
In short: (§2)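 Visual herbicidal ratings, taken three weeks after dosing, reflect post-emergence water-surface application to seedlings at one to two leaves. Conditions: co-sown weeds in alluvial soil flooded to 4 cm, greenhouse held at 25° C. to 30° C.; compound given as water-diluted emulsion at a fixed herbicide amount.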

Monochoria vaginalis [2] = experiment: Test Example 1: herbicidal activity, application before weed generation in submerged conditions (symbol C); settings: application herbicide amount 320 g/ha
In short: (§3)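 Compound emulsion was diluted to a set herbicide amount and applied to the water surface on the sowing day, into submerged (4 cm) alluvial-soil pots sown with mixed weed seeds and transplanted 2.5-leaf rice. Pots were held in a 25–30 °C greenhouse, and weeds were scored 0–5 by herbicidal ratio after 3 weeks.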

Veronica persica = experiment: Test Example 5: herbicidal effect by foliage application, plastic box (symbol R); settings: 320 g/ha, 3 weeks after application
In short: as §1

Alopecurus myosuroides = experiment: Test Example 5: herbicidal effect by foliage application, plastic box (symbol J); settings: 320 g/ha, 3 weeks after application
In short: as §1

soybean = experiment: Test Example 5: effect on crop by foliage application, plastic box (symbol d); settings: 320 g/ha, 3 weeks after application
In short: (§4)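 Soil: sterilized diluvial. Container: plastic box, 21 × 13 cm, 7 cm deep. Sowing: spot-like, ~1.5 cm cover. Growth: greenhouse, 25° C. to 30° C.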

Scirpus juncoides [3] = experiment: Test Example 1: herbicidal activity, application before weed generation in submerged conditions (symbol B); settings: application herbicide amount 320 g/ha
In short: as §3

Digitaria ciliaris = experiment: Test Example 5: herbicidal effect by foliage application, plastic box (symbol F); settings: 320 g/ha, 3 weeks after application
In short: as §1

Abutilon theophrasti = experiment: Test Example 5: herbicidal effect by foliage application, plastic box (symbol M); settings: 320 g/ha, 3 weeks after application
In short: as §1

transplanted rice plant = experiment: Test Example 1: effect on crop, application before weed generation in submerged conditions (symbol a); settings: application herbicide amount 320 g/ha
In short: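 Alluvial soil pots flooded to 4 cm water, sown with Echinochloa oryzacola, Scirpus juncoides and Monochoria vaginalis, then transplanted with 2.5 leaf stage rice seedlings; pre-emergence application. Greenhouse 25° C. to 30° C.; scored 0–5 by herbicidal ratio 3 weeks after application.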

Leptochloa chinensis = experiment: Test Example 3: herbicidal effect by foliage application, Wagner pot (symbol D); settings: application herbicide amount 320 g/ha
In short: (§5)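 Herbicidal activity was rated three weeks after a foliar spray of diluted emulsion concentrate, applied at a predetermined dose to plants grown for 14 days from seed in waterlogged alluvial soil within a 25–30 °C greenhouse.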

rice plant = experiment: Test Example 5: effect on crop by foliage application, plastic box (symbol b); settings: 320 g/ha, 3 weeks after application
In short: as §4

[4] = test system: directly sowed rice plant; experiment: Test Example 3: effect on crop by foliage application, Wagner pot (symbol b); settings: application herbicide amount 320 g/ha
In short: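 Steps: fill a 1/10000-are Wagner pot with alluvial soil; add water and mix to submerge at 0.1–0.5 cm depth; sow rice plus Echinochloa crus-galli var. crus-galli, Leptochloa chinensis and Cyperus difformis; grow in a 25–30 °C greenhouse.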

[5] = test system: Echinochloa crus-galli var. crus-galli; experiment: Test Example 5: herbicidal effect by foliage application, plastic box (symbol H); settings: 320 g/ha, 3 weeks after application
In short: as §1

Chenopodium album = experiment: Test Example 5: herbicidal effect by foliage application, plastic box (symbol O); settings: 320 g/ha, 3 weeks after application
In short: as §1

[6] = test system: Echinochloa crus-galli var. crus-galli; experiment: Test Example 3: herbicidal effect by foliage application, Wagner pot (symbol H); settings: application herbicide amount 320 g/ha
In short: as §5

Galium spurium = experiment: Test Example 5: herbicidal effect by foliage application, plastic box (symbol Q); settings: 320 g/ha, 3 weeks after application
In short: as §1

corn = experiment: Test Example 5: effect on crop by foliage application, plastic box (symbol c); settings: 320 g/ha, 3 weeks after application
In short: as §4

wheat = experiment: Test Example 5: effect on crop by foliage application, plastic box (symbol e); settings: 320 g/ha, 3 weeks after application
In short: as §4

rapeseed = experiment: Test Example 5: effect on crop by foliage application, plastic box (symbol g); settings: 320 g/ha, 3 weeks after application
In short: as §4

Cyperus difformis = experiment: Test Example 3: herbicidal effect by foliage application, Wagner pot (symbol E); settings: application herbicide amount 320 g/ha
In short: as §5

Monochoria vaginalis [7] = experiment: Test Example 2: herbicidal activity, application during weed generation in submerged conditions (symbol C); settings: Table 23; application herbicide amount 320 g/ha; grade 0-5 by criteria of Test Example 1
In short: as §2

[8] = test system: Echinochloa oryzacola Vasing.; experiment: Test Example 1: herbicidal activity, application before weed generation in submerged conditions (symbol A); settings: application herbicide amount 320 g/ha
In short: as §3

beet = experiment: Test Example 5: effect on crop by foliage application, plastic box (symbol f); settings: 320 g/ha, 3 weeks after application
In short: as §4

Amaranthus retroflexus = experiment: Test Example 5: herbicidal effect by foliage application, plastic box (symbol N); settings: 320 g/ha, 3 weeks after application
In short: as §1

[9] = test system: Echinochloa oryzacola Vasing.; experiment: Test Example 2: herbicidal activity, application during weed generation in submerged conditions (symbol A); settings: Table 23; application herbicide amount 320 g/ha; grade 0-5 by criteria of Test Example 1
In short: as §2

| SMILES | I: Avena fatua, herbicidal effect (criteria of Test Example 1) (Avena fatua) | P: Stellaria media, herbicidal effect (criteria of Test Example 1) (Stellaria media) | G: Setaria viridis, herbicidal effect (criteria of Test Example 1) (Setaria viridis) | L: Apera spica-venti, herbicidal effect (criteria of Test Example 1) (Apera spica-venti) | K: Lolium multiflorum Lam., herbicidal effect (criteria of Test Example 1) (Lolium multiflorum Lam.) | Herbicidal effect grade, B: Scirpus juncoides (Scirpus juncoides [1]) | Herbicidal effect grade, C: Monochoria vaginalis (Monochoria vaginalis [2]) | R: Veronica persica, herbicidal effect (criteria of Test Example 1) (Veronica persica) | J: Alopecurus myosuroides, herbicidal effect (criteria of Test Example 1) (Alopecurus myosuroides) | d: soybean, effect on crop (criteria of Test Example 1) (soybean) | Herbicidal effect grade, B: Scirpus juncoides (Scirpus juncoides [3]) | F: Digitaria ciliaris, herbicidal effect (criteria of Test Example 1) (Digitaria ciliaris) | M: Abutilon theophrasti, herbicidal effect (criteria of Test Example 1) (Abutilon theophrasti) | Effect grade on crop, a: transplanted rice plant (transplanted rice plant) | herbicidal effect on D (Leptochloa chinensis), grade 0-5 (Leptochloa chinensis) | b: directly sowed rice plant, effect on crop (criteria of Test Example 1) (rice plant) | effect on crop b (directly sowed rice plant), grade 0-5 [4] | H: Echinochloa crus-galli var. crus-galli, herbicidal effect (criteria of Test Example 1) [5] | O: Chenopodium album, herbicidal effect (criteria of Test Example 1) (Chenopodium album) | herbicidal effect on H (Echinochloa crus-galli var. crus-galli), grade 0-5 [6] | other results |
| --- | --- | --- | --- | --- | --- | --- | --- | --- | --- | --- | --- | --- | --- | --- | --- | --- | --- | --- | --- | --- | --- |
| CON=C(C)CC1CC(OC(=O)N(C)C)=C(c2c(C)cc(-c3ccc(Cl)cc3)cc2OC)C1=O (stereo not drawn) [6-081] | 5 (Herbicidal ratio of 90% or more (almost completely withered)) | 0 (Herbicidal ratio of 5% or lower (almost no effect)) | 0 (Herbicidal ratio of 5% or lower (almost no effect)) | 5 (Herbicidal ratio of 90% or more (almost completely withered)) | 4 (Herbicidal ratio of 70% or higher and lower than 90%) | 0 (Herbicidal ratio of 5% or lower (almost no effect)) | 1 (Herbicidal ratio of 5% or higher and lower than 20%) | 0 (Herbicidal ratio of 5% or lower (almost no effect)) | 3 (Herbicidal ratio of 40% or higher and lower than 70%) | 0 (Herbicidal ratio of 5% or lower (almost no effect)) | 0 (Herbicidal ratio of 5% or lower (almost no effect)) | 4 (Herbicidal ratio of 70% or higher and lower than 90%) | 0 (Herbicidal ratio of 5% or lower (almost no effect)) | 3 (Herbicidal ratio of 40% or higher and lower than 70%) | 3 (Herbicidal ratio of 40% or higher and lower than 70%) | 0 (Herbicidal ratio of 5% or lower (almost no effect)) | 0 (Herbicidal ratio of 5% or lower (almost no effect)) | 4 (Herbicidal ratio of 70% or higher and lower than 90%) | 0 (Herbicidal ratio of 5% or lower (almost no effect)) | 1 (Herbicidal ratio of 5% or higher and lower than 20%) | Q: Galium spurium, herbicidal effect (criteria of Test Example 1) (Galium spurium): 0 (Herbicidal ratio of 5% or lower (almost no effect)); c: corn, effect on crop (criteria of Test Example 1) (corn): 5 (Herbicidal ratio of 90% or more (almost completely withered)); e: wheat, effect on crop (criteria of Test Example 1) (wheat): 3 (Herbicidal ratio of 40% or higher and lower than 70%); g: rapeseed, effect on crop (criteria of Test Example 1) (rapeseed): 3 (Herbicidal ratio of 40% or higher and lower than 70%); herbicidal effect on E, grade 0-5 (Cyperus difformis): 0 (Herbicidal ratio of 5% or lower (almost no effect)); Herbicidal effect grade, C: Monochoria vaginalis (Monochoria vaginalis [7]): 0 (Herbicidal ratio of 5% or lower (almost no effect)); Herbicidal effect grade, A: Echinochloa oryzacola Vasing. [8]: 5 (Herbicidal ratio of 90% or more (almost completely withered)); f: beet, effect on crop (criteria of Test Example 1) (beet): 0 (Herbicidal ratio of 5% or lower (almost no effect)); N: Amaranthus retroflexus, herbicidal effect (criteria of Test Example 1) (Amaranthus retroflexus): 0 (Herbicidal ratio of 5% or lower (almost no effect)); Herbicidal effect grade, A: Echinochloa oryzacola Vasing. [9]: 1 (Herbicidal ratio of 5% or higher and lower than 20%) |
| CON=C(C)CC1CC(OC(=O)N2CCOCC2)=C(c2c(C)cc(-c3ccc(Cl)cc3Cl)cc2C)C1=O (stereo not drawn) [6-090] | 4 (Herbicidal ratio of 70% or higher and lower than 90%) | 0 (Herbicidal ratio of 5% or lower (almost no effect)) | 5 (Herbicidal ratio of 90% or more (almost completely withered)) | 2 (Herbicidal ratio of 20% or higher and lower than 40%) | 4 (Herbicidal ratio of 70% or higher and lower than 90%) | 0 (Herbicidal ratio of 5% or lower (almost no effect)) | 0 (Herbicidal ratio of 5% or lower (almost no effect)) | 0 (Herbicidal ratio of 5% or lower (almost no effect)) | 3 (Herbicidal ratio of 40% or higher and lower than 70%) | 0 (Herbicidal ratio of 5% or lower (almost no effect)) | 0 (Herbicidal ratio of 5% or lower (almost no effect)) | 5 (Herbicidal ratio of 90% or more (almost completely withered)) | 0 (Herbicidal ratio of 5% or lower (almost no effect)) | 0 (Herbicidal ratio of 5% or lower (almost no effect)) | 5 (Herbicidal ratio of 90% or more (almost completely withered)) | 1 (Herbicidal ratio of 5% or higher and lower than 20%) | 0 (Herbicidal ratio of 5% or lower (almost no effect)) | 4 (Herbicidal ratio of 70% or higher and lower than 90%) | 0 (Herbicidal ratio of 5% or lower (almost no effect)) | 0 (Herbicidal ratio of 5% or lower (almost no effect)) | Q: Galium spurium, herbicidal effect (criteria of Test Example 1) (Galium spurium): 0 (Herbicidal ratio of 5% or lower (almost no effect)); c: corn, effect on crop (criteria of Test Example 1) (corn): 2 (Herbicidal ratio of 20% or higher and lower than 40%); e: wheat, effect on crop (criteria of Test Example 1) (wheat): 0 (Herbicidal ratio of 5% or lower (almost no effect)); g: rapeseed, effect on crop (criteria of Test Example 1) (rapeseed): 4 (Herbicidal ratio of 70% or higher and lower than 90%); herbicidal effect on E, grade 0-5 (Cyperus difformis): 0 (Herbicidal ratio of 5% or lower (almost no effect)); Herbicidal effect grade, C: Monochoria vaginalis (Monochoria vaginalis [7]): 0 (Herbicidal ratio of 5% or lower (almost no effect)); Herbicidal effect grade, A: Echinochloa oryzacola Vasing. [8]: 5 (Herbicidal ratio of 90% or more (almost completely withered)); f: beet, effect on crop (criteria of Test Example 1) (beet): 0 (Herbicidal ratio of 5% or lower (almost no effect)); N: Amaranthus retroflexus, herbicidal effect (criteria of Test Example 1) (Amaranthus retroflexus): 0 (Herbicidal ratio of 5% or lower (almost no effect)); Herbicidal effect grade, A: Echinochloa oryzacola Vasing. [9]: 3 (Herbicidal ratio of 40% or higher and lower than 70%) |

Source: US11000033B2, “Ketone or oxime compound, and herbicide” (NISSAN CHEMICAL CORPORATION, priority 2014, dated 2021)
